Assay results from patent US8664228B2, “3,5-diamino-6-chloro-pyrazine-2-carboxylic acid derivatives and their use as epithelial sodium channel blockers for the treatment of airway diseases” (Novartis AG, priority 2008, dated 2014).
pIC50: −log10 of the molar value. Structures can show the parent of a compound that is named as a salt.

Molecular target: T1, epithelial sodium channel (ENaC) (Homo sapiens, UniProt P37088+P51168+P51170)
T1 construct: host or cells: primary human bronchial epithelial cells (HBECs), air-liquid interface culture
T1 sequence (P37088 1-669): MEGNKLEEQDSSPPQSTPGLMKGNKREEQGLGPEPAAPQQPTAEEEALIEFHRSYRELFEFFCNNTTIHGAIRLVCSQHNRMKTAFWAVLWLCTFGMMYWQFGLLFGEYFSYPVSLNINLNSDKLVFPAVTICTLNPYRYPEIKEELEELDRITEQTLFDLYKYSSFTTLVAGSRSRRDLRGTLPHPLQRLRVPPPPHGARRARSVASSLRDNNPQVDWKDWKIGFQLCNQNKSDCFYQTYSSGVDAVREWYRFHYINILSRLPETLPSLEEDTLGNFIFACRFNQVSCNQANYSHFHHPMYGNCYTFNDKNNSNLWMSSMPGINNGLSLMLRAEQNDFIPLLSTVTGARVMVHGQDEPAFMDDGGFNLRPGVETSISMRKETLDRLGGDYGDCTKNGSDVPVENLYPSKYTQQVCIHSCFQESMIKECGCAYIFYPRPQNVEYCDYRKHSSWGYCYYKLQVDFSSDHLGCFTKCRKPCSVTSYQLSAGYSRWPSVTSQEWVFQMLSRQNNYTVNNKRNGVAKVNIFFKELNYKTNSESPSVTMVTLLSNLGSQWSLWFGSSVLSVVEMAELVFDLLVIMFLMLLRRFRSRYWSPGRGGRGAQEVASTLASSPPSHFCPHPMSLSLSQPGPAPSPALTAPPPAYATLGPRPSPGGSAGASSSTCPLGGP
T1 sequence (P51168 1-640): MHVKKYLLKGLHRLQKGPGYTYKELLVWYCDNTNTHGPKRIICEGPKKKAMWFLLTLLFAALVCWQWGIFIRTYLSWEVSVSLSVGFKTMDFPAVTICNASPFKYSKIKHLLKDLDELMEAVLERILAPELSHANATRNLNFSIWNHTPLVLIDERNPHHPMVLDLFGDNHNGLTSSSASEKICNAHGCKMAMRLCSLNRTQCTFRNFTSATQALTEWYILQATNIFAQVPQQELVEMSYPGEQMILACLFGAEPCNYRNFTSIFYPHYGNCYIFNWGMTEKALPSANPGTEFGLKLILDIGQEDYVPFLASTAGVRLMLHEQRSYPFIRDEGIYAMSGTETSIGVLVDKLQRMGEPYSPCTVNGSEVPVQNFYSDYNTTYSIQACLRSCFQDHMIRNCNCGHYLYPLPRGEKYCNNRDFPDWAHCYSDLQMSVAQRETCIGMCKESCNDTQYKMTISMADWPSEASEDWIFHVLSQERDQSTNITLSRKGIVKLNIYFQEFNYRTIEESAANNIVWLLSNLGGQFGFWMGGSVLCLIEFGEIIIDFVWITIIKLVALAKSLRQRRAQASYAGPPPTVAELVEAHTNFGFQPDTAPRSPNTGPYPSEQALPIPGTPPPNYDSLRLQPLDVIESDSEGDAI
T1 sequence (P51170 1-649): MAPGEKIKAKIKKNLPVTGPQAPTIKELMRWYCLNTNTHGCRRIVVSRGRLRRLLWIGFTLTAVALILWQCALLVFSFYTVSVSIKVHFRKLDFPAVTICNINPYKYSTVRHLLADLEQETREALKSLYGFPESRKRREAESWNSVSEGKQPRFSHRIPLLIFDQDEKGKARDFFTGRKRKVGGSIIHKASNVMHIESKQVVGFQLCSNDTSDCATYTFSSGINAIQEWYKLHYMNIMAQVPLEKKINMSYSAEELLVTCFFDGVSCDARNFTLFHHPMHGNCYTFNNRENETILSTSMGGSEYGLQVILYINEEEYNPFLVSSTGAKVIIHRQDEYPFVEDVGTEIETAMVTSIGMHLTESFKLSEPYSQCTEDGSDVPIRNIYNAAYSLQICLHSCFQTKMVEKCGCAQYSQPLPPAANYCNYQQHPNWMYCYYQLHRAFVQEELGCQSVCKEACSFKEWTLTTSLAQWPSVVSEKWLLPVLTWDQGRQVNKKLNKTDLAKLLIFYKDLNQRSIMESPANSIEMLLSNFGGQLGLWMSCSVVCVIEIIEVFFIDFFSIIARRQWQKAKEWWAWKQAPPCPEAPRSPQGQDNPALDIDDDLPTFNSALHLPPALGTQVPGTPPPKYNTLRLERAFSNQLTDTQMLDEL
Assay: Short circuit current (ISC) measurements in human bronchial epithelial cells, inhibition of amiloride-sensitive ISC
Format: cell-based
Details: Human Bronchial Epithelial cells (HBECs) at air-liquid interface, Ussing chamber, apical addition
Method: Human Bronchial Epithelial cells (HBECs) (Cambrex) were cultured under air-liquid interface conditions to provide a well differentiated mucociliary phenotype.
HBECs were cultured using a modification of the method described by Gray and colleagues (Gray et al., 1996). Cells were seeded in plastic T-162 flasks and were grown in bronchial epithelial cell growth medium (BEGM; Cambrex) supplemented with bovine pituitary extract (52 μg/mL), hydrocortisone (0.5 μg/mL), human recombinant epidermal growth factor (0.5 ng/mL), epinephrine (0.5 μg/mL), transferrin (10 μg/mL), insulin (5 μg/mL), retinoic acid (0.1 μg/mL), triiodothyronine ([…]), gentamycin (50 μg/mL) and amphotericin B (50 ng/mL). Medium was changed every 48 hours until cells were 90% confluent. Cells were then passaged and seeded (8.25×10^5 cells/insert) on polycarbonate Snapwell inserts (Costar) in differentiation media containing 50% DMEM in BEGM with the same supplements as above but without triiodothyronine and a final retinoic acid concentration of 50 nM (all-trans retinoic acid). Cells were maintained submerged for the first 7 days in culture, after which time they were exposed to an apical air interface for the remainder of the culture period. At this time, media was changed to DMEM:F12 media containing 2% v/v Ultroser G for the remainder of culture. Amphotericin B was removed from all media 3 feeds prior to use in the Ussing Chambers. Cells were used between days 7 and 21 after establishment of the apical-air interface. At all stages of culture, cells were maintained at 37° C. in 5% CO2 in an air incubator.
Snapwell inserts were mounted in Vertical Diffusion Chambers (Costar) and were bathed with continuously gassed Ringer solution (5% CO2 in O2; pH 7.4) maintained at 37° C. containing (in mM): 120 NaCl, 25 NaHCO3, 3.3 KH2PO4, 0.8 K2HPO4, 1.2 CaCl2, 1.2 MgCl2, and 10 glucose. The solution osmolarity was between 280 and 300 mOsmol/kg H2O for all physiological salt solutions used. Cells were voltage clamped to 0 mV (model EVC4000; WPI). RT was measured by applying a 1- or 2-mV pulse at 30-s intervals and calculating RT by Ohm's law. Data were recorded using a PowerLab workstation (ADInstruments).
Test compounds were prepared as a 10 mM stock solution in DMSO (95%). Serial 3-fold dilutions were freshly prepared in an appropriate vehicle (distilled H2O or Ringers solution). The initial concentration was added to the apical chamber as a 1000× concentrate in 5 μL, resulting in a final 1× concentration the 5 mL volume of the Ussing chamber. Subsequent additions of compound were added in a 3.3 μL volume of the 1000× serially diluted stock solution. At the completion of the concentration-response experiment, amiloride (10 μM) was added into the apical chamber to enable the total amiloride-sensitive current to be measured. An amiloride control IC50 was established at the start of each experiment.
Results are expressed as the mean % inhibition of the amiloride-sensitive ISC. Concentration-response curves were plotted and IC50 values generated using GraphPad Prism 3.02. Cell inserts were typically run in duplicate and the IC50 calculated on the mean % inhibition data.

pIC50 | SMILES
6.54 | CCC[C@H](N)CNC(=O)c1nc(Cl)c(N)nc1N [Example 4, 3,5-Diamino-6-chloro-pyrazine-2-carboxylic acid ((S)-2-amino-pentyl)-amide hydrochloride]
5.56 | Nc1nc(N)c(C(=O)NC[C@@H]2CCCN2)nc1Cl [Example 9, 3,5-Diamino-6-chloro-pyrazine-2-carboxylic acid ((S)-1-pyrrolidin-2-ylmethyl)-amide hydrochloride]
5.23 | Nc1nc(N)c(C(=O)NCC2(N)CCCC2)nc1Cl [Example 11, 3,5-Diamino-6-chloro-pyrazine-2-carboxylic acid (1-amino-cyclopentylmethyl)-amide hydrochloride]
7.49 | Nc1nc(N)c(C(=O)NC[C@@H](N)CCCCNC(=O)Cc2ccc(OCc3ccccc3)cc2)nc1Cl [Example 12, 3,5-Diamino-6-chloro-pyrazine-2-carboxylic acid {(S)-2-amino-6-[2-(4-benzyloxy-phenyl)-acetylamino]-hexyl}-amide trifluororoacetate]
7.19 | Nc1nc(N)c(C(=O)NC[C@@H](N)CCCCNC(=O)CCc2ccc(OCc3ccccc3)cc2)nc1Cl [Example 21, 3,5-Diamino-6-chloro-pyrazine-2-carboxylic acid {(S)-2-amino-6-[3-(4-benzyloxy-phenyl)-propionylamino]-hexyl}-amide hydrochloride]
7.35 | CCC[C@H](CNC(=O)c1nc(Cl)c(N)nc1N)NC(=N)N [Example 24, 3,5-Diamino-6-chloro-pyrazine-2-carboxylic acid ((R)-2-guanidino-pentyl)-amide trifluoroacetate]
7.22 | CCC[C@@H](CNC(=O)c1nc(Cl)c(N)nc1N)NCCCc1ccc(OC)cc1 [Example 26, 3,5-Diamino-6-chloro-pyrazine-2-carboxylic acid {(S)-2-[3-(4-methoxy-phenyl)-propylamino]-pentyl}-amide hydrochloride]
6.70 | N=C(N)N[C@@H](CCCCNC(=O)Cc1ccc(OCc2ccccc2)cc1)CNC(=O)c1nc(Cl)c(N)nc1N [Example 27, 3,5-Diamino-6-chloro-pyrazine-2-carboxylic acid {(S)-6-[2-(4-benzyloxy-phenyl)-acetylamino]-2-guanidino-hexyl}-amide trifluoroacetate]
8.30 | CCC[C@H](CNC(=O)c1nc(Cl)c(N)nc1N)N(CCCc1ccc(OC)cc1)C(=N)N [Example 29, 3,5-Diamino-6-chloro-pyrazine-2-carboxylic acid ((R)-2-{N-[3-(4-methoxy-phenyl)-propyl]-guanidino}-pentyl)-amide trifluoroacetate]
7.31 | CCC[C@@H](CNC(=O)c1nc(Cl)c(N)nc1N)NC(=N)NCCCc1ccc(OC)cc1 [Example 31, 3,5-Diamino-6-chloro-pyrazine-2-carboxylic acid ((S)-2-{N′-[3-(4-methoxy-phenyl)-propyl]-guanidino}-pentyl)-amide]
8.22 | CCC[C@@H](CNC(=O)c1nc(Cl)c(N)nc1N)NC(=N)NCc1ccc(OC)cc1 [Example 32, 3,5-Diamino-6-chloro-pyrazine-2-carboxylic acid {(S)-2-[N′-(4-methoxy-benzyl)-guanidino]-pentyl}-amide]
